Reference: US20220289728A1, “MODULATORS OF TREX1” (Constellation Pharmaceuticals, Inc., priority 2019, published 2022)
pEC50, pIC50: −log10 of the molar value.

Target: T1, full length human TREX1 (Homo sapiens, UniProt Q9NSU2)
T1 construct: N-terminally His-Tev tagged full length human TREX1; His-TEV (His tag with TEV site) (N); made in house; host or cells: E. coli
T1 sequence (Q9NSU2 1-314): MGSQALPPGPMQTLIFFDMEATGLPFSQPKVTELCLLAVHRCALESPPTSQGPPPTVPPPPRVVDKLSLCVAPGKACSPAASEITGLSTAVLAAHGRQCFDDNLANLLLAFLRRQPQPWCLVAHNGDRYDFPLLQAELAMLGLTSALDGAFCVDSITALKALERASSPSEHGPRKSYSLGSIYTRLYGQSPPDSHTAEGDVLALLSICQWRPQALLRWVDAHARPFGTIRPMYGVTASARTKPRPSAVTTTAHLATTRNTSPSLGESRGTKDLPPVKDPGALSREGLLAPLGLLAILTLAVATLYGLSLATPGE
Experiment: TREX1 Biochemical Assay (fluorescence, dsDNA substrate degradation)
Settings: 150 pM TREX1, 60 nM dsDNA substrate, 25 minutes at room temperature
Protocol: Degradation of the dsDNA liberates free fluorophore to produce a fluorescent signal. Specifically, 7.5 μL of N-terminally His-Tev tagged full length human TREX1 (expressed in E. coli and purified in house) in reaction buffer (50 mM Tris (pH 7.4), 150 mM NaCl, 2 mM DTT, 0.1 mg/mL BSA, 0.01% (v/v) Tween-20 and 100 mM MgCl2) was added to a 384-well Black ProxiPlate Plus (Perkin Elmer) which already contained compound (150 nL) at varying concentrations as a 10 point dose-response in DMSO. To this was added 7.5 μL of dsDNA substrate (Strand A: 5′ TEX615/GCT AGG CAG 3′; Strand B: 5′ CTG CCT AGC/IAbRQSp (Integrated DNA Technologies)) in reaction buffer. Final concentrations were 150 pM TREX1, 60 nM dsDNA substrate in reaction buffer with 1.0% DMSO (v/v). After 25 minutes at room temperature, reactions were quenched by the addition of 5 μL of stop buffer (same as reaction buffer plus 200 mM EDTA). Final concentrations in the quenched reaction were 112.5 pM TREX1, 45 nM DNA and 50 mM EDTA in a volume of 20 μL. After a 5-minute incubation at room temperature, plates were read in a laser sourced Envision (Perkin-Elmer), measuring fluorescence at 615 nm following excitation w/570 nm light. IC50 values were calculated by comparing the measured fluorescence at 615 nm ratio relative to control wells pre-quenched w/stop buffer (100% inhibition) and no inhibitor (0% inhibition) controls as using non-linear least square four parameter fits and either Genedata or GraphPad Prism (GraphPad Software, Inc.).

`Cc1csc(CN(C)c2nc(C(=O)Nc3cnoc3)c(O)c(=O)n2C)n1` [Example 38] and `CN(Cc1cncnc1)c1nc(C(=O)Nc2cnoc2)c(O)c(=O)n1C` [Example 34] fall in the same range of pIC50: 6.00 to 7.00 for the first, 6.00 to 7.00 for the second.

`CN(c1nc(C(=O)Nc2cnoc2)c(O)c(=O)n1C)C(c1ccccn1)c1c(Cl)cccc1Cl` (single isomer, unassigned) [Example 60] and `CN(c1nc(C(=O)Nc2cnoc2)c(O)c(=O)n1C)C(c1ccccc1)c1ncccc1Cl` (single isomer, unassigned) [Example 54] cannot be ordered by pIC50: over 7.00 for the first, over 7.00 for the second.

`CN(Cc1ccc2ccccc2c1)c1nc(C(=O)Nc2cnoc2)c(O)c(=O)n1C` [Example 14] and `CN(Cc1cccc2ccccc12)c1nc(C(=O)Nc2cnoc2)c(O)c(=O)n1C` [Example 15] cannot be ordered by pIC50: over 7.00 for the first, over 7.00 for the second.

`CN(c1nc(C(=O)Nc2cnoc2)c(O)c(=O)n1C)C(c1ccccc1)c1cccc(C#N)c1` (single isomer, unassigned) [Example 50] and `Cc1ccc(C(c2ccccc2)N(C)c2nc(C(=O)Nc3cnoc3)c(O)c(=O)n2C)cn1` (single isomer, unassigned) [Example 44] cannot be ordered by pIC50: over 7.00 for the first, over 7.00 for the second.

Compared with `CN(CCc1ccccc1)c1nc(C(=O)Nc2cnoc2)c(O)c(=O)n1C` [Example 3], `CN(Cc1cccc(C(F)(F)F)c1)c1nc(C(=O)Nc2cnoc2)c(O)c(=O)n1C` [Example 10] is higher in pIC50: 6.00 to 7.00 for the first, over 7.00 for the second.

`Cc1cc(C(c2ccccc2Cl)N(C)c2nc(C(=O)Nc3cnoc3)c(O)c(=O)n2C)ccn1` (single isomer, unassigned) [Example 89] and `CCN(c1nc(C(=O)Nc2cnoc2)c(O)c(=O)n1C)C(c1ccccc1)c1ccccc1Cl` (single isomer, unassigned) [Example 92] cannot be ordered by pIC50: over 7.00 for the first, over 7.00 for the second.

Compared with `CN(C)C(=O)c1ccccc1CN(C)c1nc(C(=O)Nc2cnoc2)c(O)c(=O)n1C` [Example 75], `CN(Cc1ccccc1-c1cnn(C)c1)c1nc(C(=O)Nc2cnoc2)c(O)c(=O)n1C` [Example 78] is higher in pIC50: 6.00 to 7.00 for the first, over 7.00 for the second.

System: HCT116 dual cells
Experiment: HCT116 Cell Assay (Lucia luciferase reporter of Type I interferon induction)
Type: cell-based, human
Settings: 4 h pre-treatment, pBR322/BstNI DNA transfection, Lucia luciferase at 48 h; relative to 10 uM compound 39
Excerpt: HCT116 dual cells (Invivogen, San Diego, Calif., USA) are derived from the human HCT116 colorectal carcinoma cell line. Cells have been selected for the stable integration of SEAP and Luciferase reporter genes, which expression is under the control of 5 tandem response elements for NF-KB/AP1 and STAT1/STAT2, respectively. The cell line was used to monitor Type I interferon induction and subsequent signaling by measuring the activity of the Lucia luciferase secreted in the culture medium.
HCT116 cells were plated in 96-well plate(s) at 40,000 cells/well in 100 uL DMEM supplemented with 10% FBS and 25 mM Hepes (pH 7.2-7.5). After overnight settling, cells were treated with TREX1i for 4 h (maximum DMSO fraction was 0.1%) before 1.25 ug/mL pBR322/BstNI restriction digest (New England Biolabs, Ipswich, Mass., USA) was transfected with Lipofectamine LTX (ThermoFisher, Grand Island, N.Y., USA), according to product manual recommendations. Briefly, Lipofectamine LTX (0.4 uL/well) was diluted in OptiMEM (5 uL/well). pBR322/BstNI (100 ng/well) was diluted in OptiMEM (5 uL/well) before Plus reagent (0.1 uL/100 ng DNA) was added. After 5 min incubation at room temperature, the DNA mixture was mixed dropwise with the diluted Lipofectamine LTX. After an additional 10 min incubation, the transfection mix (10 uL/well) was added to the cells. Cells were maintained at 37° C. for 48 h before monitoring the Lucia Luciferase activity from the cell culture medium. EC50 values were calculated by comparing the measured luminescence relative to 10 uM compound 39 (100% inhibition) and no inhibitor (0% inhibition) controls using non-linear least-squares four parameter fits in either Genedata Screener or GraphPad Prism (GraphPad Software, Inc.).

`CN(c1nc(C(=O)Nc2cnoc2)c(O)c(=O)n1C)C(c1ccccc1)c1ncccc1Cl` (single isomer, unassigned) [Example 54] and `Cc1ccc(C(c2ccccc2)N(C)c2nc(C(=O)Nc3cnoc3)c(O)c(=O)n2C)cn1` (single isomer, unassigned) [Example 44] cannot be ordered by pEC50: over 6.00 for the first, over 6.00 for the second.

Work on `CCN(c1nc(C(=O)Nc2cnoc2)c(O)c(=O)n1C)C(c1ccccc1)c1ccccc1Cl` (single isomer, unassigned) [Example 92] yielded a pEC50 of 5.00 to 6.00.

Same assay, conditions: Homo sapiens, HCT-116, 4 h pre-treatment, pBR322/BstNI DNA transfection, Lucia luciferase at 48 h; relative to 10 uM compound 39

Compared with `CN(c1nc(C(=O)Nc2cnoc2)c(O)c(=O)n1C)C(c1ccccn1)c1c(Cl)cccc1Cl` (single isomer, unassigned) [Example 60], `Cc1cc(C(c2ccccc2Cl)N(C)c2nc(C(=O)Nc3cnoc3)c(O)c(=O)n2C)ccn1` (single isomer, unassigned) [Example 89] is higher in pEC50: 5.00 to 6.00 for the first, over 6.00 for the second.

Compared with `CN(Cc1ccc2ccccc2c1)c1nc(C(=O)Nc2cnoc2)c(O)c(=O)n1C` [Example 14], `CN(Cc1cccc2ccccc12)c1nc(C(=O)Nc2cnoc2)c(O)c(=O)n1C` [Example 15] is higher in pEC50: 4.00 to 5.00 for the first, 5.00 to 6.00 for the second.

First: CN(c1nc(C(=O)Nc2cnoc2)c(O)c(=O)n1C)C(c1ccccc1)c1cccc(C#N)c1 (single isomer, unassigned) [Example 50]
Second: CN(Cc1ccccc1-c1cnn(C)c1)c1nc(C(=O)Nc2cnoc2)c(O)c(=O)n1C [Example 78]
The pEC50 of the first is higher: over 6.00 for the first, 4.00 to 5.00 for the second.

With `CN(Cc1cccc(C(F)(F)F)c1)c1nc(C(=O)Nc2cnoc2)c(O)c(=O)n1C` [Example 10] the pEC50 was 4.00 to 5.00.

Target: T2, human TREX2 (residues M44-A279) (Homo sapiens, UniProt Q9BQ50)
T2 construct: human TREX2 (residues M44-A279, expressed in E. coli); His-TEV (His tag with TEV site) (N); made in house; host or cells: E. coli
T2 sequence (Q9BQ50 44-279 isoform Q9BQ50-1): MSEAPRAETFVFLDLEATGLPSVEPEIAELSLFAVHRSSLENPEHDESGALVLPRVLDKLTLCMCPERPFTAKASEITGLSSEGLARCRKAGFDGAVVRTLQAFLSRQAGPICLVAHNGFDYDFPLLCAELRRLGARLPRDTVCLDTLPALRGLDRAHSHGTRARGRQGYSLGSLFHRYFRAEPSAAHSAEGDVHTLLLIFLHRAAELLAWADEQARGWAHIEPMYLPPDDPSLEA
Experiment: TREX2 Biochemical Assay (fluorescence, dsDNA substrate degradation)
Settings: 2.5 nM TREX2, 60 nM dsDNA substrate, 25 minutes at room temperature
Protocol: Degradation of the dsDNA liberates free fluorophore to produce a fluorescent signal. Specifically, 7.5 μL of N-terminally His-Tev tagged human TREX2 (residues M44-A279, expressed in E. coli and purified in house) in reaction buffer (50 mM Tris (pH 7.4), 150 mM NaCl, 2 mM DTT, 0.1 mg/mL BSA, 0.01% (v/v) Tween-20 and 100 mM MgCl2) was added to a 384-well Black ProxiPlate Plus (Perkin Elmer) which already contained compound (150 nL) at varying concentrations as a 10 point dose-response in DMSO. To this was added 7.5 μL of dsDNA substrate (Strand A: 5′ TEX615/GCT AGG CAG 3′; Strand B: 5′ CTG CCT AGC/IAbRQSp (IDT)) in reaction buffer. Final concentrations were 2.5 nM TREX2, 60 nM dsDNA substrate in reaction buffer with 1.0% DMSO (v/v). After 25 minutes at room temperature, reactions were quenched by the addition of 5 μL of stop buffer (same as reaction buffer plus 200 mM EDTA). Final concentrations in the quenched reaction mixture were […] TREX2, 45 nM DNA and 50 mM EDTA in a volume of 20 μL. After a 5-minute incubation at room temperature, plates were read in a laser sourced Envision (Perkin-Elmer), measuring fluorescence at 615 nm following excitation w/570 nm light. IC50 values were calculated by comparing the measured fluorescence at 615 nm ratio relative to control wells pre-quenched w/stop buffer (100% inhibition) and no inhibitor (0% inhibition) controls as using non-linear least square four parameter fits and either Genedata or GraphPad Prism (GraphPad Software, Inc.).

First: Cc1csc(CN(C)c2nc(C(=O)Nc3cnoc3)c(O)c(=O)n2C)n1 [Example 38]
Second: CN(Cc1cncnc1)c1nc(C(=O)Nc2cnoc2)c(O)c(=O)n1C [Example 34]
The pIC50 of the first is higher: 5.00 to 6.00 for the first, 4.00 to 5.00 for the second.

Compared with `CN(c1nc(C(=O)Nc2cnoc2)c(O)c(=O)n1C)C(c1ccccn1)c1c(Cl)cccc1Cl` (single isomer, unassigned) [Example 60], `CN(c1nc(C(=O)Nc2cnoc2)c(O)c(=O)n1C)C(c1ccccc1)c1ncccc1Cl` (single isomer, unassigned) [Example 54] is higher in pIC50: 5.00 to 6.00 for the first, over 6.00 for the second.

`CN(Cc1ccc2ccccc2c1)c1nc(C(=O)Nc2cnoc2)c(O)c(=O)n1C` [Example 14] and `CN(Cc1cccc2ccccc12)c1nc(C(=O)Nc2cnoc2)c(O)c(=O)n1C` [Example 15] fall in the same range of pIC50: 5.00 to 6.00 for the first, 5.00 to 6.00 for the second.

`CN(c1nc(C(=O)Nc2cnoc2)c(O)c(=O)n1C)C(c1ccccc1)c1cccc(C#N)c1` (single isomer, unassigned) [Example 50] and `Cc1ccc(C(c2ccccc2)N(C)c2nc(C(=O)Nc3cnoc3)c(O)c(=O)n2C)cn1` (single isomer, unassigned) [Example 44] cannot be ordered by pIC50: over 6.00 for the first, over 6.00 for the second.

Compared with `CN(CCc1ccccc1)c1nc(C(=O)Nc2cnoc2)c(O)c(=O)n1C` [Example 3], `CN(Cc1cccc(C(F)(F)F)c1)c1nc(C(=O)Nc2cnoc2)c(O)c(=O)n1C` [Example 10] is higher in pIC50: 4.00 to 5.00 for the first, 5.00 to 6.00 for the second.

`Cc1cc(C(c2ccccc2Cl)N(C)c2nc(C(=O)Nc3cnoc3)c(O)c(=O)n2C)ccn1` (single isomer, unassigned) [Example 89] and `CCN(c1nc(C(=O)Nc2cnoc2)c(O)c(=O)n1C)C(c1ccccc1)c1ccccc1Cl` (single isomer, unassigned) [Example 92] cannot be ordered by pIC50: over 6.00 for the first, over 6.00 for the second.

First: CN(C)C(=O)c1ccccc1CN(C)c1nc(C(=O)Nc2cnoc2)c(O)c(=O)n1C [Example 75]
Second: CN(Cc1ccccc1-c1cnn(C)c1)c1nc(C(=O)Nc2cnoc2)c(O)c(=O)n1C [Example 78]
The pIC50 of the first is lower: 4.00 to 5.00 for the first, 5.00 to 6.00 for the second.
